Source: patent US12377065B2, “Compositions for treatment of substance use disorder” (UNIVERSITY OF NORTH TEXAS HEALTH SCIENCE CENTER, priority 2019, dated 2025)

Key:
Swiss-Webster mice [1] = assay: Cocaine-conditioned locomotor response, acquisition and expression (Example 2)
Swiss-Webster mice [2] = assay: Acute cocaine-induced hyperlocomotion (Example 2); details: cocaine 40 mg/kg; for effect on acute cocaine-induced hyperlocomotion: all doses tested, i.p., ANOVA effect of treatment
Swiss-Webster mice [3] = assay: Nicotine-induced locomotor activity test; type: in vivo; details: 60-90 min; for motor activity, compound alone: no nicotine, vs vehicle
Procedure: Test Compounds. […] Chantix (varencline, 3 mg/kg) was obtained from National Institute on Drug Abuse. All drugs were dissolved in 0.9% saline and pH was maintained at 7.
Testing Procedures. […] In all studies, horizontal activity (interruption of photocell beams) was measured for 120 min within 10-min periods.
Different groups of Swiss-Webster mice were pretreated via injection (IP) with either DMTU (5 or 10 mg/kg), or Chantix (varenicline, 3 mg/kg) or vehicle (0.9% saline) for 30 minutes (FIG. 10). Following pretreatment all groups were mice were injected via the subcutaneous (sc) route with either 0.9% saline or r nicotine (1.6 mg/kg) just prior to placement in the activity chamber. The activity of all mice were recorded for a period of 2-h (FIG. 10).

Swiss-Webster mice [4] = assay: Cocaine-conditioned locomotor activity, expression test (Example 1); details: last 15 minutes, vs Paired-vehicle, cocaine 40 mg/kg
mice = assay: Cocaine-conditioned place preference; type: in vivo
Procedure: All mice underwent standard place conditioning. As depicted in FIG. 3, the procedures of the first four days were identical to those described previously (Shetty et al., 2017). A preference score was calculated for each individual mouse using the following equation: Time spent on S+ (at test)−Time spent on S+ (at pretest). The preference score assesses the nature and magnitude of drug conditioning to the S+ floor, with positive numbers reflecting an increase in preference for S+ following the experience with cocaine and negative numbers indicating a decrease in preference following experience with cocaine. A second test session was conducted 24 hours later (on day 5). This test was identical to the test session on day 4 except that 30 minutes prior to testing, mice were pretreated with either 5 or 10 mg/kg DMTU (i.p.). A preference score was calculated after the second test in a similar fashion as described for the first preference test.
Data Analysis. […] The existence of subgroups was determined through application of K-means clustering analysis (SYSTAT v. 13.1). In this fashion, Test 1 data was partitioned into 3 subgroups: mice with high positive preference scores (labeled as High Seeker group), mice with low positive preference scores (labeled as Low Seeker group), and mice with negative preference scores (labeled as Avoider group).
Data from the mice treated with 5 mg/kg DMTU during Test 2 were analyzed separately from data from mice treated with 10 mg/kg DMTU. Separate one-way repeated measures analysis of variance (ANOVA) was conducted, with test (comparison of preference score on test day 1 and day 2) as a within-subject factor.
To assess the ability of DMTU (by either the 5 mg/kg or 10 mg/kg dose) to reduce cocaine-induced preference on different subsets of mice, within-subject planned comparisons of preference scores on test 1 and 2 were performed for each cluster separately (Avoider, Low Seeker, High Seeker). Alpha was set to 0.05.

[5] = all doses tested, i.p., ANOVA effect of treatment, last 15 min

## CNC(=S)NC [DMTU, N,N′-dimethylthiourea]
Swiss-Webster mice [1]; 50 mg/kg i.p., post-hoc
  acquisition of the cocaine-conditioned locomotor response: significantly attenuated acquisition
Swiss-Webster mice [1]; 25-50 mg/kg i.p., post-hoc
  expression of the cocaine-conditioned locomotor response: significantly attenuating expression
Swiss-Webster mice [1]
  ED50:AD50 ratio: 4.676
Swiss-Webster mice [1]; [5]
  acquisition of the cocaine-conditioned locomotor response: significant main effect
  expression of the cocaine-conditioned locomotor response: significant effect on expression
Swiss-Webster mice [2]
  effect on acute cocaine-induced hyperlocomotion: no significant main effect
Swiss-Webster mice [3]; 5 mg/kg IP 30 min pretreatment + nicotine 1.6 mg/kg sc, only 10 mg/kg was significant
  nicotine-induced stimulant locomotor activity (horizontal activity, counts): modulated nicotine induced stimulant action
Swiss-Webster mice [3]; 10 mg/kg IP 30 min pretreatment + nicotine 1.6 mg/kg sc, vs nicotine alone
  nicotine-induced stimulant locomotor activity (horizontal activity, counts): significantly reduced the nicotine stimulant activity
Swiss-Webster mice [3]; DMTU alone (5 or 10 mg/kg IP)
  motor activity, compound alone: failed to alter the motor activity
Swiss-Webster mice [4]; 5 mg/kg i.p. 30 min before expression test
  expression of cocaine-conditioned locomotor activity (horizontal activity, counts): did not affect activity
Swiss-Webster mice [4]; 10 mg/kg i.p. 30 min before expression test
  expression of cocaine-conditioned locomotor activity (horizontal activity, counts): significantly inhibited cocaine-conditioned locomotor activity
mice; 5 mg/kg i.p. 30 min before Test 2, clusters combined, cocaine 15 mg/kg
  cocaine-conditioned place preference score, Test 2 vs Test 1: not significantly altered
mice; 5 mg/kg i.p., Avoider group
  cocaine-conditioned place preference score, Test 2 vs Test 1: Neither dose of DMTU succeeded in blocking preference scores
mice; 5 mg/kg i.p., High Seeker subset
  cocaine-conditioned place preference score, Test 2 vs Test 1: significantly reduced preference scores
mice; 5 mg/kg i.p., Low Seeker group
  cocaine-conditioned place preference score, Test 2 vs Test 1: Neither dose of DMTU succeeded in blocking preference scores
mice; 10 mg/kg i.p. 30 min before Test 2, clusters combined, cocaine 15 mg/kg
  cocaine-conditioned place preference score, Test 2 vs Test 1: not significantly altered
mice; 10 mg/kg i.p., Avoider group
  cocaine-conditioned place preference score, Test 2 vs Test 1: Neither dose of DMTU succeeded in blocking preference scores
mice; 10 mg/kg i.p., High Seeker subset
  cocaine-conditioned place preference score, Test 2 vs Test 1: significantly reduced preference scores
mice; 10 mg/kg i.p., Low Seeker group
  cocaine-conditioned place preference score, Test 2 vs Test 1: Neither dose of DMTU succeeded in blocking preference scores

## Cc1c(C)c2c(c(C)c1O)CC[C@@](C)(CCC[C@H](C)CCC[C@H](C)CCCC(C)C)O2 [Vitamin E, (+)-alpha-tocopherol]
Swiss-Webster mice [1]; [5]
  acquisition of the cocaine-conditioned locomotor response: failed to attenuate acquisition
  expression of the cocaine-conditioned locomotor response: failed to attenuate
Swiss-Webster mice [2]
  effect on acute cocaine-induced hyperlocomotion: had no effect on the acute effect of cocaine

## COc1cc(C(C)=O)ccc1O [Apocynin, apocynin]
Swiss-Webster mice [1]; 25 mg/kg i.p., initial 15 min of the test, post hoc
  expression of the cocaine-conditioned locomotor response: facilitated expression of the conditioned response
Swiss-Webster mice [1]; [5]
  acquisition of the cocaine-conditioned locomotor response: no effect on acquisition
  expression of the cocaine-conditioned locomotor response: no effect on expression
Swiss-Webster mice [2]
  effect on acute cocaine-induced hyperlocomotion: no significant main effect

## c1cnc2cc3c(cc2n1)[C@@H]1CNC[C@H]3C1 [Chantix, varenicline]
Swiss-Webster mice [3]; 3 mg/kg IP 30 min pretreatment + nicotine 1.6 mg/kg sc
  motor activity with nicotine: significant reduction
Swiss-Webster mice [3]; 3 mg/kg IP alone
  motor activity, compound alone: significant reduction

## O=C1O[C@H]([C@@H](O)CO)C(O)=C1O [Vitamin C, L-ascorbic acid]
Swiss-Webster mice [1]; 100 mg/kg i.p., initial 15 min of the test, post-hoc
  acquisition of the cocaine-conditioned locomotor response: facilitated acquisition of the conditioned locomotor response
Swiss-Webster mice [1]; [5]
  acquisition of the cocaine-conditioned locomotor response: failed to attenuate acquisition
  expression of the cocaine-conditioned locomotor response: failed to attenuate
Swiss-Webster mice [2]; 100 mg/kg i.p.
  effect on acute hyperkinetic effect of cocaine: facilitated the acute hyperkinetic effect of cocaine

## CC(=O)N[C@@H](CS)C(=O)O [NAC, N-acetylcysteine]
Swiss-Webster mice [1]; 100 mg/kg i.p., post-hoc
  expression of the cocaine-conditioned locomotor response: significant attenuation
Swiss-Webster mice [1]; 250 mg/kg i.p., post-hoc vs paired control
  acquisition of the cocaine-conditioned locomotor response: significantly attenuated acquisition
Swiss-Webster mice [1]
  ED50:AD50 ratio: 1.2731
Swiss-Webster mice [1]; [5]
  acquisition of the cocaine-conditioned locomotor response: no significant main effect
  expression of the cocaine-conditioned locomotor response: main effect
Swiss-Webster mice [2]
  effect on acute cocaine-induced hyperlocomotion: no significant main effect
